Results reported in patent US6756408B2, “Methods and materials for protecting against myocardial cell damage related to coronary intervention by regional beta blocker therapy” (Board of Regents, The University of Texas System, priority 2001, dated 2004).

Tested on: patients with coronary artery disease undergoing PCI
Test: Randomized, double-blind, placebo-controlled trial of intracoronary propranolol before percutaneous coronary intervention
Format: in vivo
Procedure: Study population: This study was a randomized, double-blind, placebo-controlled trial. Patients with coronary artery disease undergoing PCI were considered for inclusion. Patients on chronic beta blockers were included. Exclusion criteria included myocardial infarction (“MI”) within 24 h or recent MI with elevation of CK or CKMB at time of randomization (a normal CK and CKMB and elevated troponin T allowed inclusion); cardiogenic shock; systolic blood pressure<100 mm Hg; heart rate<50/min; NYHA class III or IV heart failure; severe left ventricular dysfunction (ejection fraction<30%); severe renal insufficiency (creatinine>3.0 mg/dl); allergy to propranolol; or second planned intervention within 30 days. Patients with chronic obstructive pulmonary disease (“COPD”) were not specifically excluded.
Study protocol: Before initiation of PCI, all patients were pretreated with aspirin and received weight-adjusted heparin, with a target activated clotting time of >300 seconds in the absence of a glycoprotein IIb/IIIa (“GP IIb/IIIa”) inhibitor and 200-300 seconds with a GP IIb/IIIa inhibitor, which was allowed but not mandated.
Patients were randomized in a 1:1 ratio to receive either placebo or propranolol. The randomization allocation code was generated using complete block design. Randomization was performed after coronary angiography confirmed the need for PCI. In patients with a total occlusion, the lesion was crossed with a guide wire before randomization.
Study drug kits were packaged by hospital pharmacy to be indistinguishable from each other with a concentration of 1 mg/ml; the identity of the injectate (i.e., propranolol or placebo) was not known to the investigators or to the patients. […] The study drug was thus delivered directly into the myocardial region supplied by the stenotic coronary artery undergoing PCI. Balloon inflation was performed after the IC injection of propranolol or placebo. Blood samples were taken prior to PCI, immediately after PCI, and every 8 h for 24 h to assay CK and CKMB. Blood samples were taken at 16 h for troponin T analysis. Additional blood levels were obtained when any patient experienced possible ischemic symptoms. The 30-day contact was made by clinic visit or telephone interview.
Study endpoints: The primary endpoint was the incidence of post-procedural elevation of CKMB above the upper limit of normal (“ULN”). The “threshold” for the development of an excess in adverse events relative to the level of CKMB appears to be a continuous function beginning with any elevation of CKMB or troponin T with the frequency of long-term adverse events, particular death, increasing with the level of enzyme rise (Simoons, which is hereby incorporated by reference). Secondary endpoints included (1) incidence of post-procedure total CK elevation, (2) incidence of troponin T elevation (in those patients with normal baseline values), (3) median peak values of CK, CKMB, and troponin T, (4) rescue therapy with GP IIb/IIIa inhibitors, and (5) combination of death from any cause, myocardial necrosis, recurrent MI within 30 days, or severe myocardial ischemia requiring urgent coronary-artery bypass surgery or target lesion revascularisation (“TLR”) within 30 days of intervention (“MACE”).
Urgent target lesion revascularisation included any coronary artery bypass graft surgery or a second PCI on the original target lesion performed for recurrent myocardial ischemia. Successful PCI was defined as post-procedure residual stenosis at the target lesion<30% of reference vessel diameter without major adverse outcome (death, Q wave MI, emergent CABG). Major bleeding was defined as bleeding requiring transfusion, surgery, prolongation of hospital stay, or >8% drop in hematocrit after PCI. Rescue GP IIb/IIIa use was defined as drug given after the guide wire passage during PCI.

[1] = patients with mechanical complications, n = 17
[2] = patients with no mechanical complication, n = 58

CC(C)NCC(O)COc1cccc2ccccc12 (stereo not shown) [Propranolol, propranolol]
Change in heart rate or blood pressure after IC injection (15 μg/kg intracoronary): no change | Incidence of elevation of CKMB (>5 ng/ml) after PCI (0.015 mg/kg): 17% | Incidence of elevation of Troponin T (>0.10 ng/ml) after PCI (0.015 mg/kg, 16 h): 13% | Death (30 days after PCI, n = 75): 0% | Recurrent MI (30 days after PCI, n = 75): 1% | Urgent/emergent TLR (30 days after PCI, n = 75): 0% | Significant bleeding (after PCI): 3% | Combined 30d MACE (death, myocardial necrosis, recurrent MI, urgent TLR within 30 days, n = 75): 18% | "Rescue" GP IIb/IIIa inhibitors use required (drug given after guide wire passage during PCI): 11% | Adverse systemic effects after IC injection (including respiratory difficulties in 5 patients with history of COPD or asthma): no adverse systemic effects | Heart rate, post drug (largest change after drug administration, baseline 67 ± 11): 66 ± 11 beats/min | Systolic BP, post drug (largest change after drug administration, baseline 139 ± 25): 137 ± 23 mmHg | CKMB elevation ≧3 times upper limit of normal (number of patients out of 75): 7 patients | Elevation of CK (% of patients) [1]: 18% | Elevation of CKMB (% of patients) [1]: 41% | Elevation of troponin T (% of patients) [1]: 35% | Elevation of CK (% of patients) [2]: 0% | Elevation of CKMB (% of patients) [2]: 10% | Elevation of troponin T (% of patients) [2]: 5% | Median value of CKMB (post PCI, all patients): 2.1 | Median value of total CK (post PCI, all patients): 67 | Median value of troponin T (post PCI, all patients): 0.03 | Favorable effect on preventing myocardial necrosis, subgroup analysis (relative risk by subgroups, FIG. 3): broadly applicable | Recurrent MI (number of patients) (within 30 days): 1 patients | Urgent TLR required (number of patients) (within 30 days): 0 patients
